From patent publication US11926640B2, “Prodrugs of glutamine analogs” (THE JOHNS HOPKINS UNIVERSITY, priority 2015, dated 2024)
“Also recorded” adds a separate entry of the source. Where a name gives a salt, the structure may show the parent alone. Each block holds one compound with its values, some of them ahead of it.

Assays:
[1] = in vitro metabolic stability in mouse plasma; details: for PLASMA STABILITY Mouse: prodrug remaining within the 60 min incubation time; for stability in mouse plasma (in words): 30 min and 60 min
[2] = in vitro metabolic stability in monkey plasma; details: for PLASMA STABILITY Monkey: prodrug remaining within the 60 min incubation time; for stability in monkey plasma (in words): 30 min and 60 min
[3] = in vitro metabolic stability in human plasma; details: for PLASMA STABILITY Human: prodrug remaining within the 60 min incubation time; for stability in human plasma (in words): 30 min and 60 min
[4] = chemical stability (cyclization to diazo-imine, acidic pH); assay type: physicochemical
Source text: Chemistry. Scheme 9 outlines the synthesis and characterization of the ester based prodrugs 20 and 3 of DON and their subsequent cyclization to novel diazo-imines 9a-b. The pyroglutamate esters 6a-b (D'Andrea, et al., 2008) were FMOC-protected to afford compounds 18 and 1. Formation of the diazoketones 19 and 2 was accomplished using TMS diazomethane in good yield. Rapid deprotection with piperidine afforded the ester based prodrugs 20 and 3. Unexpectedly […] cyclization was observed even under mild conditions (e.g. stirring in chloroform at room temperature) affording the novel diazo-imines 9a and 9b. It is believed that this is the first example of this functional group being described in the chemical literature.

[5] = in vitro liver microsomal stability, pig; details: pig microsomes
[6] = 5-day i.v. toxicity comparison of DON and 38 in pigs; assay type: in vivo; details: at equivalent PBMC exposures
[7] = in vitro liver microsomal stability, human; details: human microsomes
[8] = in vitro metabolic stability in pig plasma; details: 30 min and 60 min
[9] = in vitro metabolic stability in dog plasma; assay type: in vitro ADME; details: 30 min and 60 min
Experimental: Percentage remaining was calculated in the following manner.

[10] = DON release in mouse plasma after oral administration of prodrugs; assay type: in vivo; details: mice, p.o., 30 minutes and 5 hours after dosing, compared to DON
Experimental: Procedure for Pharmacokinetic analysis for DON release from its prodrugs: DON is extracted from samples (50 μL) with 250 μL methanol containing Glutamate-d5 (10 μM ISTD) by vortexing in low retention tubes. Samples are centrifuged at 16,000×g for 5 minutes to precipitate proteins. Supernatants (200 μL) are moved to new tube and dried at 45° C. under vacuum (approximately 1 hour). To each tube, 50 μL of 0.2 M sodium bicarbonate buffer (pH 9.0) and 100 μL dabsyl chloride stock is added. After vortexing, samples are incubated at 60° C. for 15 minutes to derivatize.

[11] = plasma and CSF pharmacokinetics of DON in swine after i.v. infusion; assay type: in vivo, Göttingen×Yucutan miniature swine; details: 60 min post-administration
Experimental: Compound: Compound 47 was dissolved in a sterile saline containing 5% ethanol and 5% Tween 80 on the date of administration.
Swine: Swine studies were conducted under a protocol approved by the Johns Hopkins Animal Care and Use Committee. Adult, female Göttingen×Yucutan miniature swine (Massachusetts General Hospital, MA) were housed in Johns Hopkins University facilities accredited by the Association for Assessment and Accreditation of Laboratory Animal Care International in compliance with the Animal Welfare Act, Animal Welfare Regulations, and the Public Health Service Policy on the Humane Care and Use of Laboratory Animals. Animals were maintained on a 14-h light and 10-h dark schedule, provided ad libitum water and a commercial miniswine diet (Teklad, Madison, WI) with environmental enrichment (fruit/vegetables) twice daily.

[12] = system: MC38 colon cancer; assay: MC38 tumor model; assay type: in vivo, mice; details: single agent

SMILES: CC(C)OC(=O)[C@H](CCC(=O)C=[N+]=[N-])NC(=O)[C@@H](N)Cc1c[nH]c2ccccc12 (stereo in doubt) [Compound 38, Isopropyl 2-(2-amino-3-(1H-indol-3-yl)propanamido)-6-diazo-5-oxohexanoate]
- liver microsomal stability (in words) [5]: moderate-high stability
- PLASMA STABILITY Mouse [1]: 0%
- PLASMA STABILITY Monkey [2]: 10%
- DON delivered to GI tissues (in words) [6]: less DON to GI tissues
- PLASMA STABILITY Human [3]: 30%
- liver microsomal stability (in words) [7]: moderate-high stability

SMILES: CC(C)OC(=O)C(N)CCC(=O)C=[N+]=[N-] (centres unmarked) [Compound 3, Isopropyl 2-amino-6-diazo-5-oxohexanoate]
- chemical stability (in words) [4]: chemical instability; also recorded: unstable

SMILES: CC(C)OC(=O)[C@H](CCC(=O)C=[N+]=[N-])NP(=O)(Oc1ccccc1)Oc1ccccc1 [Compound 4, Isopropyl 6-diazo-2-((diphenoxyphosphoryl)amino)-5-oxohexanoate]
- stability in mouse plasma (in words) [1]: unstable
- stability in pig plasma (in words) [8]: stable
- stability in monkey plasma (in words) [2]: stable
- stability in human plasma (in words) [3]: stable

SMILES: CC(C)OC(=O)C(CCC(=O)C=[N+]=[N-])NP(=O)(NC(CCC(=O)C=[N+]=[N-])C(=O)OC(C)C)Oc1ccccc1 (centres unmarked) [Compound 7, 1-methylethyl 2,6-bis[4-(1λ^5-diazynylidene)-3-oxobutyl]-9-methyl-7-oxo-4-phenoxy-8-oxa-3,5-diaza-4-phosphadecan-1-oate 4-oxide]
- stability in mouse plasma (in words) [1]: unstable
- stability in pig plasma (in words) [8]: stable
- stability in monkey plasma (in words) [2]: stable
- stability in human plasma (in words) [3]: stable

SMILES: CC(C)C[C@H](N)C(=O)N[C@@H](CCC(=O)C=[N+]=[N-])C(=O)OC(C)C [Compound 9, Isopropyl 2-(2-amino-4-methylpentanamido)-6-diazo-5-oxohexanoate]
- liver microsomal stability (in words) [5]: moderate-high stability
- stability in mouse plasma (in words) [1]: unstable
- PLASMA STABILITY Mouse [1]: 0%
- stability in pig plasma (in words) [8]: unstable
- stability in monkey plasma (in words) [2]: unstable
- PLASMA STABILITY Monkey [2]: 1%
- stability in human plasma (in words) [3]: unstable
- PLASMA STABILITY Human [3]: 1%
- liver microsomal stability (in words) [7]: moderate-high stability
- stability in dog plasma (in words) [9]: unstable

SMILES: CCOC(=O)[C@@H]1CCC(C=[N+]=[N-])=N1 [Compound 9a, Ethyl 5-(diazomethyl)-3,4-dihydro-2H-pyrrole-2-carboxylate]
- chemical stability (in words) [4]: chemically stable even at acidic pH

SMILES: CCOC(=O)[C@@H](N)CCC(=O)C=[N+]=[N-] [Compound 20, Ethyl 2-amino-6-diazo-5-oxohexanoate]
- chemical stability (in words) [4]: chemical instability; also recorded: unstable

SMILES: CC(C)OC(=O)[C@H](CCC(=O)C=[N+]=[N-])NC(=O)OC(OC(=O)C(C)(C)C)c1ccccc1 (some centres unmarked) [Compound 47, Isopropyl 6-diazo-5-oxo-2-(((phenyl(pivaloyloxy)methoxy)carbonyl)amino) hexanoate]
- CSF delivery of DON (in words) [11]: substantially higher amounts of DON to the CSF; also recorded: enhanced CSF delivery of DON
- CSF:plasma ratio of DON (in words) [11]: increased CSF-to-plasma ratios; also recorded: enhanced CSF:plasma ratio

Continued, in another order:

- PLASMA STABILITY Mouse [1]: 0%
- PLASMA STABILITY Monkey [2]: 75%
- PLASMA STABILITY Human [3]: 88%
SMILES: CCOC(=O)[C@H](CCC(=O)C=[N+]=[N-])NC(=O)OC(C)OC(=O)C(C)(C)C (mixture of isomers) [Compound 32, Ethyl 6-diazo-2-(((1-(pivaloyloxy)ethoxy)carbonyl)amino)-5-oxohexanoate]

- chemical stability (in words) [4]: chemically stable even at acidic pH
SMILES: CC(C)OC(=O)[C@@H]1CCC(C=[N+]=[N-])=N1 (stereo in doubt) [Compound 9b, Isopropyl 5-(diazomethyl)-3,4-dihydro-2H-pyrrole-2-carboxylate]

- PLASMA STABILITY Mouse [1]: 0%
- PLASMA STABILITY Monkey [2]: 0%
- PLASMA STABILITY Human [3]: 0%
SMILES: Cc1oc(=O)oc1COC(=O)N[C@@H](CCC(=O)C=[N+]=[N-])C(=O)OC(C)C [Compound 13, 1-Methylethyl 6-(1λ^5-diazynylidene)-N-{[(5-methyl-2-oxo-1,3-dioxol-4-yl)methoxy]carbonyl}-5-oxo-L-norleucinate]

- DON release / exposure in mouse plasma upon oral administration (in words) [10]: little DON release
SMILES: C[C@H](N)C(=O)N[C@@H](CCC(=O)C=[N+]=[N-])C(=O)O [Compound 23, 2-(2-Aminopropanamido)-6-diazo-5-oxohexanoic acid]

- DON release / exposure in mouse plasma upon oral administration (in words) [10]: some release
SMILES: CC(C)C[C@H](N)C(=O)N[C@@H](CCC(=O)C=[N+]=[N-])C(=O)O [Compound 26, 2-(2-Amino-4-methylpentanamido)-6-diazo-5-oxohexanoic acid triethylammonium salt]

- DON release / exposure in mouse plasma upon oral administration (in words) [10]: little DON release
SMILES: CC(OC(=O)N[C@@H](CCC(=O)C=[N+]=[N-])C(=O)O)OC(=O)C(C)C (some centres unmarked) [Compound 29, 6-Diazo-2-(((1-(isobutyryloxy)ethoxy)carbonyl)amino)-5-oxohexanoic acid triethylammonium salt]

- DON release / exposure in mouse plasma upon oral administration (in words) [10]: little DON release
SMILES: CC(OC(=O)N[C@@H](CCC(=O)C=[N+]=[N-])C(=O)O)OC(=O)C(C)(C)C (some centres unmarked) [Compound 30, 6-Diazo-2-(((1-(pivaloyloxy)ethoxy)carbonyl)amino)-5-oxohexanoic acid triethylammonium salt]

- PLASMA STABILITY Mouse [1]: 0%
- PLASMA STABILITY Monkey [2]: 4%
- PLASMA STABILITY Human [3]: 12%
SMILES: CCOC(=O)[C@H](CCC(=O)C=[N+]=[N-])NC(=O)[C@@H](N)Cc1c[nH]c2ccccc12 [Compound 34, Ethyl 2-(2-amino-3-(1H-indol-3-yl)propanamido)-6-diazo-5-oxohexanoate]

- PLASMA STABILITY Mouse [1]: 0%
- PLASMA STABILITY Monkey [2]: 0%
- PLASMA STABILITY Human [3]: 0%
SMILES: CCOC(=O)[C@H](CCC(=O)C=[N+]=[N-])NC(=O)OCc1oc(=O)oc1C [Compound 36, Ethyl 6-diazo-2-((((5-methyl-2-oxo-1,3-dioxol-4-yl)methoxy)carbonyl)amino)-5-oxohexanoate]

- PLASMA STABILITY Mouse [1]: 0%
- PLASMA STABILITY Monkey [2]: 0%
- PLASMA STABILITY Human [3]: 9%
SMILES: CC(C)OC(=O)[C@H](CCC(=O)C=[N+]=[N-])NC(=O)OCOC(=O)C(C)(C)C [Compound 42, Isopropyl 6-diazo-5-oxo-2-((((pivaloyloxy)methoxy)carbonyl)amino) hexanoate]

- liver microsomal stability (in words) [5]: moderate-high stability
- liver microsomal stability (in words) [7]: moderate-high stability
SMILES: CC(=O)N[C@@H](Cc1c[nH]c2ccccc12)C(=O)N[C@@H](CCC(=O)C=[N+]=[N-])C(=O)OC(C)C [Compound 60, Isopropyl 2-(2-acetamido-3-(1H-indol-3-yl)propanamido)-6-diazo-5-oxohexanoate]
- antitumor efficacy in MC38 tumor model (in words) [12]: promoted tumor regression

- DON release / exposure in mouse plasma upon oral administration (in words) [10]: below the limit of quantitation
SMILES: C=CCOC(=O)N[C@@H](CCC(=O)C=[N+]=[N-])C(=O)O [LTP 073]
